# Experimental data: patent US20240124418A1 (BioTheryX, Inc., priority 2020, published 2024)
# Experiments:
# [1] = test system: TNF-α; test: Cell-based TNF-α inhibition assay (LPS-induced PBMCs, Meso Scale); conditions: PBMC, PBMCs pretreated 1 h, LPS 100 ng/mL 18-24 h, percentage of stimulated DMSO control; for inhibition at 0.1 µM: compound concentration 0.1 μM; for inhibition at 1 µM: compound concentration 1 μM
# In short: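 Thawed primary PBMCs (200,000 cells/well, RPMI 1640 with 10% FBS) were pretreated with compound for 1 h, then stimulated with 100 ng/mL LPS for 18–24 h. Supernatant TNF-α was measured by Meso Scale, and activity was expressed as percent inhibition relative to the stimulated DMSO control.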
# [2] = target: T1, PDE4B (Homo sapiens, UniProt Q07343); test: Protein degradation assay, western blot, PDE4B in A549 cells; format: cell-based; conditions: 24 h treatment, 'as high as about' = upper value for the group, read-out: PDE4B degradation relative to DMSO
# T1 construct: endogenous in cells; host or cells: A549
# Description: (§1) Example B2. Protein Degradation Assay
# (§2) A549 cells were grown in RPMI 1640 media supplemented with 10% fetal bovine serum, streptomycin, and penicillin. The cells were plated in 6-well plates at 300,000 cells/well in the growth media. After overnight incubation, the cells were treated with DMSO (control) or a compound at predetermined concentrations (e.g., 10 nM, 100 nM, 1 μM, 3 μM, or 10 μM) for 24 h at 37° C. under 5% CO2. Whole cell extracts were prepared using an immunoprecipitation (IP) lysis buffer. The cells were washed once in PBS, and the cell pellets were resuspended in the IP lysis buffer and incubated for 15 min on ice. Cells debris was removed by centrifugation and the cleared whole cell lysates were transferred to new tubes for further analysis.
# (§3) For a western blot analysis, the whole cell protein extracts were separated on 4-12% SDS-polyacrylamide gels, transferred to nitrocellulose, and probed with primary antibodies. Membranes were subsequently washed and probed with IRDYE® secondary antibodies. The signals were detected using an ODYSSEY® Imaging System. The antibodies used in the assay included anti-PDE4B antibody; anti-PDE4D antibodies (top, bottom, and short isoform); β-actin mouse monoclonal antibody; IRDYE® 680RD goat anti-rabbit antibody; and IRDYE® 800CW goat anti-mouse antibody. The compounds provided herein are PDE4 protein degraders.
# [3] = test system: PDE4D, in particular, PDE4D short isoform; test: Protein degradation assay, western blot, PDE4D in A549 cells; format: cell-based; conditions: 24 h treatment, same conditions
# Description: as §1, §2, §3
# T1 sequence (Q07343 whole entry): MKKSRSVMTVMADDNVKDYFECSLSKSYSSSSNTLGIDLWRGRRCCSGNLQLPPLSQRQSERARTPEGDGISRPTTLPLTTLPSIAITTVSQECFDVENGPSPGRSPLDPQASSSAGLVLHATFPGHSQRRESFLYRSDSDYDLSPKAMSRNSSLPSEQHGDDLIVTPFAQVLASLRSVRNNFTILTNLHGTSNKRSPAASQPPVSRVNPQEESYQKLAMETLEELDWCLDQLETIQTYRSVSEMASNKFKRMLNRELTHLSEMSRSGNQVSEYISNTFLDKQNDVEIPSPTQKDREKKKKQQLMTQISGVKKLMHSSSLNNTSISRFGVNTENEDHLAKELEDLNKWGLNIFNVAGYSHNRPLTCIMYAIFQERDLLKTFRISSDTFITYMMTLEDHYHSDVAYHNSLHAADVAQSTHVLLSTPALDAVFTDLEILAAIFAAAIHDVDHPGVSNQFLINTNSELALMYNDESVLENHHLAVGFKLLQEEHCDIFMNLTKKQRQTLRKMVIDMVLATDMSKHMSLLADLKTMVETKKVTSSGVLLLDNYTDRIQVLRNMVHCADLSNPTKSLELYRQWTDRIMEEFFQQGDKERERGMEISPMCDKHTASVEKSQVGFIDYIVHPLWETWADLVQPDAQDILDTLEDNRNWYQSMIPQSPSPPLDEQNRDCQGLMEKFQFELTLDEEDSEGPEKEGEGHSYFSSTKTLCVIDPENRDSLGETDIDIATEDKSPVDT
structure (smiles),measurement,setting,value
"O=C1CCC(N2Cc3c(NCCCOCCOCCOCCOc4ccc(C(=O)Nc5c(Cl)cncc5Cl)cc4OCC4CC4)cccc3C2=O)C(=O)N1 (centres unmarked) [Compound B9, 3-(Cyclopropylmethoxy)-N-(3,5-dichloropyridin-4-yl)-4-(2-(2-(2-(3-((2-(2,6-dioxopiperidin-3-yl)-1-oxoisoindolin-4-yl)amino)propoxy)ethoxy)ethoxy)ethoxy)benzamide]",inhibition at 0.1 µM,[1],≥ 60%
same,inhibition at 1 µM,[1],≥ 60%
same,Dmax,[2],≤ 70%
CCOc1cc([C@@H](CS(C)(=O)=O)N2C(=O)c3cccc(NC(C)=O)c3C2=O)ccc1OC [apremilast],PDE4D degradation (in words),[3],did not degradate the PDE4D
"CCOc1cc([C@@H](CS(C)(=O)=O)N2C(=O)c3cccc(NC(=O)CCCc4ccc(CCNCc5ccc(OCc6scc7c6CN(C6CCC(=O)NC6=O)C7=O)cc5)cc4)c3C2=O)ccc1OC (stereo partly drawn) [Compound A42, 4-[4-(2-{[(4-{[5-(2,6-Dioxopiperidin-3-yl)-4-oxo-4H,5H,6H-thieno[3,4-c]pyrrol-1-yl]methoxy}phenyl)methyl]amino}ethyl)phenyl]-N-{2-[(1S)-1-(3-ethoxy-4-methoxyphenyl)-2-methanesulfonylethyl]-1,3-dioxo-2,3-dihydro-1H-isoindol-4-yl}butanamide]",inhibition at 0.1 µM,[1],≥ 60%
same,inhibition at 1 µM,[1],≥ 60%
same,Dmax,[2],≤ 70%
"O=C1CCC(N2Cc3cc(C4CCN(CCOc5cc(C(=O)Nc6c(Cl)cncc6Cl)ccc5OC(F)F)CC4)c(F)cc3C2=O)C(=O)N1 (centres unmarked) [Compound B15, N-(3,5-Dichloropyridin-4-yl)-4-(difluoromethoxy)-3-(2-{4-[2-(2,6-dioxo-piperidin-3-yl)-6-fluoro-1-oxo-2,3-dihydro-1H-isoindol-5-yl]piperidin-1-yl}ethoxy)benzamide]",inhibition at 0.1 µM,[1],≥ 60%
same,inhibition at 1 µM,[1],≥ 60%
same,Dmax,[2],≤ 70%
"CCOc1cc([C@@H](CS(C)(=O)=O)N2C(=O)c3cccc(NC(=O)CCOCCOCCNc4cccc5c4C(=O)N(C4CCC(=O)NC4=O)C5=O)c3C2=O)ccc1OC (stereo partly drawn) [Compound A9, 3-(2-(2-((2-(2,6-Dioxopiperidin-3-yl)-1,3-dioxoisoindolin-4-yl)amino)-ethoxy)ethoxy)-N-(2-((S)-1-(3-ethoxy-4-methoxyphenyl)-2-(methylsulfonyl)ethyl)-1,3-dioxoisoindolin-4-yl)propanamide]",inhibition at 0.1 µM,[1],≥ 60%
same,inhibition at 1 µM,[1],≥ 60%
same,Dmax,[2],≤ 70%
"CCOc1cc([C@@H](CS(C)(=O)=O)N2C(=O)c3cccc(NC(=O)CCCCCCCCCCNCc4ccc(OCc5scc6c5CN(C5CCC(=O)NC5=O)C6=O)cc4)c3C2=O)ccc1OC (stereo partly drawn) [Compound A43, 11-{[(4-{[5-(2,6-Dioxopiperidin-3-yl)-4-oxo-4H,5H,6H-thieno[3,4-c]pyrrol-1-yl]methoxy}phenyl)methyl]amino}-N-{2-[(1S)-1-(3-ethoxy-4-methoxyphenyl)-2-methanesulfonylethyl]-1,3-dioxo-2,3-dihydro-1H-isoindol-4-yl}undecanamide]",inhibition at 0.1 µM,[1],≥ 60%
same,inhibition at 1 µM,[1],≥ 60%
same,Dmax,[2],≤ 70%
"O=C1CCC(N2Cc3c(cc(F)cc3C3CCN(CCCCCCCOc4ccc(C(=O)Nc5c(Cl)cncc5Cl)cc4OCC4CC4)CC3)C2=O)C(=O)N1 (centres unmarked) [Compound B10, 3-(Cyclopropylmethoxy)-N-(3,5-dichloropyridin-4-yl)-4-((7-(4-(2-(2,6-dioxopiperidin-3-yl)-6-fluoro-1-oxoisoindolin-4-yl)piperidin-1-yl)heptyl)oxy)benzamide]",inhibition at 0.1 µM,[1],20 to 40%
same,inhibition at 1 µM,[1],≥ 60%
same,Dmax,[2],≤ 70%
"O=C1CCC(N2Cc3c(cc(F)cc3C3CCN(CCCCCCCOc4cc(C(=O)Nc5c(Cl)cncc5Cl)ccc4OC(F)F)CC3)C2=O)C(=O)N1 (centres unmarked) [Compound B1, N-(3,5-Dichloropyridin-4-yl)-4-(difluoromethoxy)-3-((7-(4-(2-(2,6-dioxopiperidin-3-yl)-6-fluoro-1-oxoisoindolin-4-yl)piperidin-1-yl)heptyl)oxy)benzamide]",inhibition at 0.1 µM,[1],< 20%
same,inhibition at 1 µM,[1],< 20%
same,Dmax,[2],≤ 70%
"CCOc1cc([C@@H](CS(C)(=O)=O)N2C(=O)c3cc(CCCCCCCC4CCN(c5cccc6c5C(=O)N(C5CCC(=O)NC5=O)C6=O)CC4)cc(NC(C)=O)c3C2=O)ccc1OC (stereo partly drawn) [Compound A8, N-(6-(7-(1-(2-(2,6-Dioxopiperidin-3-yl)-1,3-dioxoisoindolin-4-yl)piperidin-4-yl)-heptyl)-2-((S)-1-(3-ethoxy-4-methoxyphenyl)-2-(methylsulfonyl)ethyl)-1,3-dioxoisoindolin-4-yl)acetamide]",inhibition at 0.1 µM,[1],≥ 60%
same,inhibition at 1 µM,[1],≥ 60%
same,Dmax,[2],≤ 70%
"CCOc1cc([C@@H](CS(C)(=O)=O)N2C(=O)c3cccc(NC(=O)CC4CN(Cc5ccc(OCc6scc7c6CN(C6CCC(=O)NC6=O)C7=O)cc5)CCO4)c3C2=O)ccc1OC (stereo partly drawn) [Compound A40, 2-{4-[(4-{[5-(2,6-Dioxopiperidin-3-yl)-4-oxo-4H,5H,6H-thieno[3,4-c]pyrrol-1-yl]methoxy}phenyl)methyl]morpholin-2-yl}-N-{2-[(1S)-1-(3-ethoxy-4-methoxyphenyl)-2-methanesulfonylethyl]-1,3-dioxo-2,3-dihydro-1H-isoindol-4-yl}acetamide]",inhibition at 0.1 µM,[1],≥ 60%
same,inhibition at 1 µM,[1],≥ 60%
same,Dmax,[2],≤ 70%
"CCOc1cc([C@@H](CS(C)(=O)=O)N2C(=O)c3cc(CCCCCCCN4CCC(c5cc(F)cc6c5CN(C5CCC(=O)NC5=O)C6=O)CC4)cc(NC(C)=O)c3C2=O)ccc1OC (stereo partly drawn) [Compound A1, N-(6-(7-(4-(2-(2,6-Dioxopiperidin-3-yl)-6-fluoro-1-oxoisoindolin-4-yl)piperidin-1-yl)heptyl)-2-((S)-1-(3-ethoxy-4-methoxyphenyl)-2-(methylsulfonyl)ethyl)-1,3-dioxoisoindolin-4-yl)acetamide]",inhibition at 0.1 µM,[1],≥ 60%
same,Dmax,[2],≤ 70%
"CCOc1cc([C@@H](CS(C)(=O)=O)N2C(=O)c3cccc(NC(=O)CCCCCCCCN4CCC(c5cc(F)cc6c5CN(C5CCC(=O)NC5=O)C6=O)CC4)c3C2=O)ccc1OC (stereo partly drawn) [Compound A13, 9-(4-(2-(2,6-Dioxopiperidin-3-yl)-6-fluoro-1-oxoisoindolin-4-yl)piperidin-1-yl)-N-(2-((S)-1-(3-ethoxy-4-methoxyphenyl)-2-(methylsulfonyl)ethyl)-1,3-dioxoisoindolin-4-yl)nonanamide]",inhibition at 0.1 µM,[1],≥ 60%
same,Dmax,[2],≤ 70%
"O=C1CCC(N2C(=O)c3cccc(N4CCC(CCCCCCCOc5cc(C(=O)Nc6c(Cl)cncc6Cl)ccc5OC(F)F)CC4)c3C2=O)C(=O)N1 (centres unmarked) [Compound B14, N-(3,5-Dichloropyridin-4-yl)-4-(difluoromethoxy)-3-((7-(1-(2-(2,6-dioxo-piperidin-3-yl)-1,3-dioxoisoindolin-4-yl)piperidin-4-yl)heptyl)oxy)benzamide]",inhibition at 0.1 µM,[1],≥ 60%
same,inhibition at 1 µM,[1],≥ 60%
same,Dmax,[2],≤ 70%
"CCOc1cc([C@@H](CS(C)(=O)=O)N2C(=O)c3cccc(NCCCCCCCCCNCc4ccc(OCc5scc6c5CN(C5CCC(=O)NC5=O)C6=O)cc4)c3C2=O)ccc1OC (stereo partly drawn) [Compound A44, 4-[(9-{[(4-{[5-(2,6-Dioxopiperidin-3-yl)-4-oxo-4H,5H,6H-thieno[3,4-c]pyrrol-1-yl]methoxy}phenyl)methyl]amino}nonyl)amino]-2-[(1S)-1-(3-ethoxy-4-methoxyphenyl)-2-methanesulfonylethyl]-2,3-dihydro-1H-isoindole-1,3-dione]",inhibition at 0.1 µM,[1],≥ 60%
same,inhibition at 1 µM,[1],≥ 60%
same,Dmax,[2],≤ 70%
"CCOc1cc([C@@H](CS(C)(=O)=O)N2C(=O)c3cccc(NC(=O)CCOCCOCCOCCNc4cccc5c4C(=O)N(C4CCC(=O)NC4=O)C5=O)c3C2=O)ccc1OC (stereo partly drawn) [Compound A10, 3-(2-(2-(2-((2-(2,6-Dioxopiperidin-3-yl)-1,3-dioxoisoindolin-4-yl)amino)ethoxy)-ethoxy)ethoxy)-N-(2-((S)-1-(3-ethoxy-4-methoxyphenyl)-2-(methylsulfonyl)ethyl)-1,3-dioxoisoindolin-4-yl)propanamide]",inhibition at 0.1 µM,[1],< 20%
same,inhibition at 1 µM,[1],< 20%
same,Dmax,[2],≤ 70%
